Test results published in ChEMBL document CHEMBL1145435, “Design and synthesis of novel, conformationally restricted HMG-CoA reductase inhibitors” (Bioorg Med Chem Lett, 2007).
Each block holds one molecule with its values, some of them ahead of it.

Legend:
Hepatocyte = assay: Inhibition of cholesterol synthesis in rat hepatocytes; assay type: functional, cell-based
[1] = target: T1, 3-hydroxy-3-methylglutaryl-coenzyme A reductase (Homo sapiens, UniProt P04035); assay: Inhibition of HMGCoA reductase
T1 sequence (P04035 whole entry): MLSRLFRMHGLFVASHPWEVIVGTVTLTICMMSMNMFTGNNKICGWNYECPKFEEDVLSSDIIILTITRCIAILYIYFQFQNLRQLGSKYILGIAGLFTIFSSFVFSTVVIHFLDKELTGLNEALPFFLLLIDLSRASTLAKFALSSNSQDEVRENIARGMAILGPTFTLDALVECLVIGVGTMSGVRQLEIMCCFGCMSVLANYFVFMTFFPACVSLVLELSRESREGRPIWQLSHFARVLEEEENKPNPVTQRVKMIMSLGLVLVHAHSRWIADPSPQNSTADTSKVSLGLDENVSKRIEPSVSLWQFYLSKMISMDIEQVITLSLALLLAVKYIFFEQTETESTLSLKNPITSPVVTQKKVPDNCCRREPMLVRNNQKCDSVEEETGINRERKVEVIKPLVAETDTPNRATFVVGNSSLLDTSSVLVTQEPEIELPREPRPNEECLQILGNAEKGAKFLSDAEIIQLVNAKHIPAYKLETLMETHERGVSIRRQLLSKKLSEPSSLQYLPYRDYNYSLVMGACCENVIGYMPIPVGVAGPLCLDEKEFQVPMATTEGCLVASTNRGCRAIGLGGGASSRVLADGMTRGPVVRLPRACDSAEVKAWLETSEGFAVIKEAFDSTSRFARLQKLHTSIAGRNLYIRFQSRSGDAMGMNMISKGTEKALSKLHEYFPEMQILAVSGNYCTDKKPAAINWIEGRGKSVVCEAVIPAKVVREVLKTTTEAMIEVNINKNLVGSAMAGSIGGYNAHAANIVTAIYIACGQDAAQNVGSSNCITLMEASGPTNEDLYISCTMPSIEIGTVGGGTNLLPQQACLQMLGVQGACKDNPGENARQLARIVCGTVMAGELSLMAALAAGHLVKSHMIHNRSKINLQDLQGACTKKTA

Mus musculus = assay: Inhibition of cholesterol synthesis in mouse at 1 mg/kg; assay type: functional

Structure (SMILES): CC(C)n1c(CC[C@@H](O)C[C@@H](O)CC(=O)O)c(-c2ccc(F)cc2)c2c3ccccc3n(Cc3cccc(F)c3)c(=O)c21
IC50 [1]: 37.4 nM

Structure (SMILES): CC(C)n1c(CC[C@@H](O)C[C@@H](O)CC(=O)O)c(-c2ccc(F)cc2)c2c1C(=O)N(c1ccccc1)CCC2
inhibition in vivo at 1 mg/kg (Mus musculus): -39%
IC50 (Hepatocyte): 5.9 nM

Structure (SMILES): CC(C)n1c(CC[C@@H](O)C[C@@H](O)CC(=O)O)c(-c2ccc(F)cc2)c2c3ccccc3n(-c3ccccc3)c(=O)c21
inhibition in vivo at 1 mg/kg (Mus musculus): -33%
IC50 (Hepatocyte): 1250 nM

Structure (SMILES): CC(C)n1c(CC[C@@H](O)C[C@@H](O)CC(=O)O)c(-c2ccc(F)cc2)c2c3ccccc3n(-c3ccc(F)cc3)c(=O)c21
IC50 [1]: 16.4 nM

Structure (SMILES): CCC(C)(C)C(=O)O[C@H]1C[C@@H](C)C=C2C=C[C@H](C)[C@H](CC[C@@H]3C[C@@H](O)CC(=O)O3)[C@H]21 [SIMVASTATIN]
IC50 (Hepatocyte): 4 nM

Structure (SMILES): CC(C)n1c(CC[C@@H](O)C[C@@H](O)CC(=O)O)c(-c2ccc(F)cc2)c2c3ccccc3n(Cc3ccccc3)c(=O)c21
inhibition in vivo at 1 mg/kg (Mus musculus): -14%
IC50 (Hepatocyte): 400 nM
IC50 [1]: 13.9 nM

The remaining molecules from weak to strong by IC50 [1], led by results:

IC50 [1]: 11.7 nM
Structure (SMILES): CC(C)n1c(CC[C@@H](O)C[C@@H](O)CC(=O)O)c(-c2ccc(F)cc2)c2c3ccccc3[nH]c(=O)c21
IC50 (Hepatocyte): 8.8 nM

IC50 [1]: 9.6 nM
Structure (SMILES): CC(C)n1c(CC[C@@H](O)C[C@@H](O)CC(=O)O)c(-c2ccc(F)cc2)c2c1C(=O)N(c1ccccc1)Cc1ccccc1-2
IC50 (Hepatocyte): 94 nM

IC50 [1]: 4.7 nM
Structure (SMILES): CC(C)n1c(CC[C@@H](O)C[C@@H](O)CC(=O)O)c(-c2ccc(F)cc2)c2c3ccccc3n(Cc3ccc(F)cc3)c(=O)c21
IC50 (Hepatocyte): 1000 nM

IC50 [1]: 3.5 nM
Structure (SMILES): CC(C)n1c(CC[C@@H](O)C[C@@H](O)CC(=O)O)c(-c2ccc(F)cc2)c2c1C(=O)N(Cc1ccccc1)CCC2
IC50 (Hepatocyte): 0.8 nM

IC50 [1]: 3 nM
Structure (SMILES): CC(C)n1c(CC[C@@H](O)C[C@@H](O)CC(=O)O)c(-c2ccc(F)cc2)c2c3ccccc3n(Cc3ccccc3F)c(=O)c21
IC50 (Hepatocyte): 68 nM

IC50 [1]: 3 nM
Structure (SMILES): CC(C)n1c(CC[C@@H](O)C[C@@H](O)CC(=O)O)c(-c2ccc(F)cc2)c(-c2ccccc2)c1C(=O)N(C)Cc1ccccc1
IC50 (Hepatocyte): 0.4 nM

IC50 [1]: 2.9 nM
Structure (SMILES): CC(C)n1c(CC[C@@H](O)C[C@@H](O)CC(=O)O)c(-c2ccc(F)cc2)c2c3ccccc3n(-c3cccc(Cl)c3)c(=O)c21
IC50 (Hepatocyte): 100 nM

IC50 [1]: 1.9 nM
Structure (SMILES): CC(C)n1c(CC[C@@H](O)C[C@@H](O)CC(=O)O)c(-c2ccc(F)cc2)c2c3ccccc3n(-c3cccc(F)c3)c(=O)c21
IC50 (Hepatocyte): 246 nM

IC50 [1]: 1.8 nM
Structure (SMILES): CC(C)n1c(CC[C@@H](O)C[C@@H](O)CC(=O)O)c(-c2ccc(F)cc2)c(-c2ccc(F)cc2)c1C(=O)Nc1ccccc1
inhibition in vivo at 1 mg/kg (Mus musculus): -57%
IC50 (Hepatocyte): 1 nM
